Results: ChEMBL document CHEMBL1140261, “Novel 1-[2-(diarylmethoxy)ethyl]-2-methyl-5-nitroimidazoles as HIV-1 non-nucleoside reverse transcriptase inhibitors. A structure-activity relationship investigation” (J Med Chem, 2005)

Legend:
MT4 [1] = experiment: Concentration required to protect MT-4 cells from HIV-1 induced cytopathogenicity by 50%; determined by MTT method; type: functional, cell-based; conditions: Homo sapiens
MT4 [2] = experiment: (§1) Selective index as the ratio of CC50 and EC50; type: functional
MT4 [3] = experiment: Concentration required to reduce the viability of mock-infected cells by 50%; determined by MTT method.; type: functional; conditions: Homo sapiens
[4] = test system: Human immunodeficiency virus type 1 reverse transcriptase (Human immunodeficiency virus 1), Q72547 [R221A]
Description: Dose required to inhibit HIV-1 reverse transcriptase activity (Y188L mutant) by 50%

[5] = test system: Human immunodeficiency virus type 1 reverse transcriptase (Human immunodeficiency virus 1), Q72547 [V179D]
Description: Dose required to inhibit HIV-1 reverse transcriptase activity (V179D mutant) by 50%

[6] = test system: Human immunodeficiency virus type 1 reverse transcriptase (Human immunodeficiency virus 1), Q72547 [L100I]
Description: Dose required to inhibit HIV-1 reverse transcriptase activity ( L100I mutant) by 50%

[7] = target: Human immunodeficiency virus type 1 reverse transcriptase (Human immunodeficiency virus 1) (UniProt Q72547)
Description: Dose required to inhibit HIV-1 reverse transcriptase activity (wild-type) by 50%

[8] = test system: Human immunodeficiency virus type 1 reverse transcriptase (Human immunodeficiency virus 1), Q72547 [Y181I]
[9] = test system: Human immunodeficiency virus type 1 reverse transcriptase (Human immunodeficiency virus 1), Q72547 [K103N]
[10] = test system: Human immunodeficiency virus type 1 reverse transcriptase (Human immunodeficiency virus 1), Q72547 [L100I]; experiment: Dose required to inhibit HIV-1 reverse transcriptase activity (L100I mutant) by 50%
[11] = test system: Human immunodeficiency virus type 1 reverse transcriptase (Human immunodeficiency virus 1), Q72547 [K103N]; experiment: Dose required to inhibit HIV-1 reverse transcriptase activity (K103N mutant) by 50%
[12] = target: T1, Human immunodeficiency virus type 1 reverse transcriptase (Human immunodeficiency virus 1, UniProt Q72547); experiment: Concentration required to inhibit HIV-1 reverse transcriptase activity of wild-type enzyme; type: functional
[13] = target: Human immunodeficiency virus type 1 reverse transcriptase (Human immunodeficiency virus 1) (UniProt Q72547); experiment: Dose required to inhibit HIV-1 reverse transcriptase activity of wild-type enzyme by 50%
[14] = target: T1, Human immunodeficiency virus type 1 reverse transcriptase; experiment: Concentration required to inhibit HIV-1 reverse transcriptase activity (wild-type) enzyme
MT4 [15] = experiment: as §1; type: functional, Human immunodeficiency virus 1
[16] = target: T1, Human immunodeficiency virus type 1 reverse transcriptase; experiment: Concentration required to inhibit HIV-1 reverse transcriptase activity (wild-type) by 50%; type: functional

Structure (SMILES)	EC50 (MT4 [1]) [µM]	SI (MT4 [2])	CC50 (MT4 [3]) [µM]	also measured
Cc1ccccc1C(OCCn1c([N+](=O)[O-])cnc1C)c1cccs1 (stereo unspecified)	0.45	204	92	
Cc1ncc([N+](=O)[O-])n1CCS(=O)(=O)C(c1ccccc1)c1ccccc1	5.2	>19.3	> 100	
Cc1ncc([N+](=O)[O-])n1CCSCc1ccccc1	60	>1.7	> 100	
Cc1ccc(C(OCCn2c([N+](=O)[O-])cnc2C)c2cccs2)cc1 (stereo unspecified)	0.3	>3333	> 100	
Cc1ncc([N+](=O)[O-])n1CCNC(c1ccccc1)c1ccccc1F (stereo unspecified)	50	>2	> 100	
Cc1ncc([N+](=O)[O-])n1CCOC(c1cccs1)c1ccccc1Cl (stereo unspecified)	1.9	>52.6	> 100	
Cc1ncc([N+](=O)[O-])n1CCNCc1ccccc1	> 100		> 100	
Cc1ncc([N+](=O)[O-])n1CCSC(c1ccccc1)c1cccc(F)c1 (stereo unspecified)	80	>1.2	> 100	
Cc1ncc([N+](=O)[O-])n1CCOCc1ccccc1	4.2	>2.38	> 100	
Cc1ncc([N+](=O)[O-])n1CCN(Cc1ccccc1)C1CCCCC1	84	>1.2	> 100	
Cc1ncc([N+](=O)[O-])n1CCSC(c1ccccc1)c1ccccc1F (stereo unspecified)	5	>20	> 100	
Cc1ncc([N+](=O)[O-])n1CCNC(c1ccccc1)c1cccc(F)c1 (stereo unspecified)	1.8	>55.6	> 100	
Cc1ncc([N+](=O)[O-])n1CCOC(c1ccc(Cl)cc1)c1cccs1 (stereo unspecified)	58	>1.7	> 100	
Cc1ncc([N+](=O)[O-])n1CCOC(c1ccccc1)c1ccccc1		>500	> 100	
Cc1nc([N+](=O)[O-])cn1CCOC(c1ccccc1)c1ccccc1	67	>1.5	> 100	
Cc1cccc(C(SCCn2c([N+](=O)[O-])cnc2C)c2ccccc2)c1 (stereo unspecified)	3	>33.3	> 100	
Cc1ncc([N+](=O)[O-])n1CCOC(c1ccc(F)cc1)c1cccs1 (stereo unspecified)	3.1	>32.3	> 100	
Cc1nc([N+](=O)[O-])cn1CCOCc1ccccc1	22	>4.5	> 100	
Cc1ncc([N+](=O)[O-])n1CCNC(c1ccccc1)c1ccccc1Cl (stereo unspecified)	90	>1.1	> 100	
Cc1ccnc2c1NC(=O)c1cccnc1N2C1CC1				ID50 [4]: 18 µM; ID50 [5]: 0.3 µM; ID50 [6]: 9 µM; ID50 [7]: 0.4 µM; ID50 [8]: 36 µM; ID50 [9]: 7 µM

Structure (SMILES)	EC50 (MT4 [1]) [µM]	SI (MT4 [2])	CC50 (MT4 [3]) [µM]	also measured
Cc1ncc([N+](=O)[O-])n1CCSC(c1ccccc1)c1cccc(Cl)c1 (stereo unspecified)	64	>1.6	> 100	
Cc1ncc([N+](=O)[O-])n1CCOC(c1cccs1)c1ccccc1F (stereo unspecified)	0.12	>833	> 100	
Cc1ncc([N+](=O)[O-])n1CCSC(c1ccccc1)c1ccccc1Cl (stereo unspecified)	12	>8.3	> 100	
Cc1cccc(C(NCCn2c([N+](=O)[O-])cnc2C)c2ccccc2)c1 (stereo unspecified)	65	>1.5	> 100	
Cc1ncc([N+](=O)[O-])n1CCOC(c1ccccc1)C1CCCCC1 (stereo unspecified)	0.3	>333.3	> 100	
O=[N+]([O-])c1cn(CCOC(c2ccccc2)c2ccccc2)cn1	78	>1.3	> 100	
Cc1ncc([N+](=O)[O-])n1CCOC(c1cccc(Cl)c1)c1cccs1 (stereo unspecified)	0.08	900	72	ID50 [10]: 3.2 µM; ID50 [4]: 15.1 µM; ID50 [5]: 10.8 µM; ID50 [11]: 5.1 µM; ID50 [7]: 1.17 µM; ID50 [8]: 6.25 µM
O=[N+]([O-])c1cncn1CCOC(c1ccccc1)c1ccccc1	> 100		> 100	
Cc1ncc([N+](=O)[O-])n1CCOC(c1ccccc1)c1ccco1 (stereo unspecified)	0.1	>840	> 100	
Cc1ncc([N+](=O)[O-])n1CCOC(c1cccc(F)c1)c1cccs1 (stereo unspecified)	0.14	>714	> 100	
Cc1ncc([N+](=O)[O-])n1CCSC(c1ccccc1)c1ccccc1	1.2	>83.5	> 100	EC50 [12]: 2.3 µM; ID50 [13]: 10.6%
Cc1ncc([N+](=O)[O-])n1CCNC(c1ccccc1)c1ccc(F)cc1 (stereo unspecified)	92	>1.1	> 100	
Cc1ncc([N+](=O)[O-])n1CCOC(c1cccs1)c1cccc(F)c1F (stereo unspecified)	0.06	>1667	> 100	
Cc1ncc([N+](=O)[O-])n1CCOC(c1ccccc1)c1cccs1 (stereo unspecified)	0.03		> 100	ID50 [4]: 30.2 µM; EC50 [14]: 0.03 µM; ID50 [5]: 1.9 µM; ID50 [6]: 5.5 µM; ID50 [7]: 0.37 µM; ID50 [8]: > 50 µM; SI (MT4 [15]): >3333; ID50 [9]: 8.25 µM
Cc1ncc([N+](=O)[O-])n1CCNC(c1ccccc1)c1ccccc1	12	>8.3	> 100	EC50 [16]: 8 µM; ID50 [7]: 16.5 µM
Cc1ncc([N+](=O)[O-])n1CCOC(c1ccccc1)c1ccc(Cl)s1 (stereo unspecified)	1.2	8.33	> 100	
Cc1ccc(C(NCCn2c([N+](=O)[O-])cnc2C)c2ccccc2)cc1 (stereo unspecified)	44	>2.3	> 100	
Cc1ncc([N+](=O)[O-])n1CCNC(c1ccccc1)c1cccc(Cl)c1 (stereo unspecified)	2.1	>47.6	> 100	
Cc1ncc([N+](=O)[O-])n1CCOC(c1ccccc1)c1ccc2ccccc2c1 (stereo unspecified)	> 100		> 100	
Cc1ncc([N+](=O)[O-])n1CCOC(c1ccccc1)c1cccnc1 (stereo unspecified)	0.08	>1250	> 100	
